US20140094424A1, “MICROBICIDAL COMPOSITIONS AND METHODS OF PRODUCTION USE THEREOF” (priority 2011, published 2014)
Where two headings read alike, the source gives them in different places.

Experiments:
[1] = tested on: Penicillium notatum-KMO (R); assay: MBC (minimum bactericidal concentration) test in Wash NEXT reagent; format: cell-based; set-up: key to MBC test growth score: number = actual colony count; + full mat, − no growth
Description: (§1) The stock organisms were thawed and subbed prior to beginning the MBC test. Molds were subbed to SDA plates one week before, and the bacteria were subbed to TAT agar plates 24 hours prior to the start of the test. All plates were incubated at 32 degrees C.
For the molds, each organism was inoculated into 40 ml sterile saline in a centrifuge tube to create a density of MacFarland #5. Two serial dilutions of 1:100 were then made, resulting in 10^−2 and 10^−4 concentrations. Each dilution was vortexed before it was sampled, and sterile Eppendorf pipette tips were used to make each transfer. The 10^−4 dilution was spiral plated to yield the initial inoculum concentration.
(§2) MBC trays were set up with the prepared test reagent. Using a Matrix pipettor, 100 μl aliquots of reagent were distributed into the wells, diluting the amount of preservative from 100% to 10% increments, using unpreserved reagent as the diluent. In one row, 100% non-preserved reagent acted as a positive control and served as a benchmark for a full mat of growth. In well #12H, 100 μl unpreserved reagent was pipetted, and this well was not inoculated with organisms, as it served as the negative control. Once all of the trays were prepared, the prepared bacteria/mold suspensions were poured into the MBC inoculating trays. These were placed onto the reagent trays, and 0.01 ml inoculum was introduced into the 100 μl of reagent in each well.
(§3) This was done by dipping a sterile cotton swab into each well, and absorbing all of the liquid in the well. The swab was rolled onto a TAT agar plate ensuring that the entire swab touches the agar. Plates ware incubated at 32 degrees C. for 48 hours to 7 days, depending on the organism. Observations for growth were performed by a scoring matrix using + for a full mat, +/− for some growth, a numerical value for an actual colony count, and—for no growth.
(§4) Below are tables that contain the data obtained in Example 1. The MBC test is scored by (+) indicating a full grown mat of organisms, equivalent to the organisms in the unpreserved reagent. (+/−) indicates there is some kill evident disturbing that mat or bringing the quantities down to an almost countable level. An actual number is the actual number of colonies growing at that concentration of preservative. (−) indicates no growth found. The MBC trays were stored at room temperature for the entire test.
(§5) The materials and methods and analysis of the MBC test were the same as in Example 1.

Ralstonia pickettii (AU) = format: cell-based
Description: as §1
Each bacterial organism was inoculated into 40 ml sterile saline in a centrifuge tube to create a density of MacFarland #1. Two serial dilutions of 1:100 were then made, resulting in 10^−2 and 10^−4 concentrations. Each dilution was vortexed before it was sampled, and sterile Eppendorf pipette tips were used to make each transfer. The 10^−4 dilution was spiral plated to yield the initial inoculum concentration.
as §2, §3, §4, §5

## Cc1cc(NS(=O)(=O)c2ccc(N)cc2)no1 [Sulfamethoxazole, sulfamethoxazole]
[1]; 10% preservative, 8 hour
  MBC test growth score: +
[1]; 10% preservative, 24 hour
  MBC test growth score: +
[1]; 10% preservative, 48 hour
  MBC test growth score: +/−
[1]; 10% preservative, 72 hour
  MBC test growth score: +
[1]; 10% preservative, 7 day
  MBC test growth score: +
[1]; 10% preservative, 14 day
  MBC test growth score: +/−
[1]; 20% preservative, 8 hour
  MBC test growth score: +
[1]; 20% preservative, 24 hour
  MBC test growth score: +
[1]; 20% preservative, 48 hour
  MBC test growth score: +/−
[1]; 20% preservative, 72 hour
  MBC test growth score: +/−
[1]; 20% preservative, 7 day
  MBC test growth score: +/−
[1]; 20% preservative, 14 day
  MBC test growth score: 31
[1]; 30% preservative, 8 hour
  MBC test growth score: +
[1]; 30% preservative, 24 hour
  MBC test growth score: +
[1]; 30% preservative, 48 hour
  MBC test growth score: +/−
[1]; 30% preservative, 72 hour
  MBC test growth score: +/−
[1]; 30% preservative, 7 day
  MBC test growth score: +/−
[1]; 30% preservative, 14 day
  MBC test growth score: 28
[1]; 40% preservative, 8 hour
  MBC test growth score: +
[1]; 40% preservative, 24 hour
  MBC test growth score: +
[1]; 40% preservative, 48 hour
  MBC test growth score: +/−
[1]; 40% preservative, 72 hour
  MBC test growth score: +/−
[1]; 40% preservative, 7 day
  MBC test growth score: +/−
[1]; 40% preservative, 14 day
  MBC test growth score: 25
[1]; 50% preservative, 8 hour
  MBC test growth score: +
[1]; 50% preservative, 24 hour
  MBC test growth score: +
[1]; 50% preservative, 48 hour
  MBC test growth score: +/−
[1]; 50% preservative, 72 hour
  MBC test growth score: +/−
[1]; 50% preservative, 7 day
  MBC test growth score: +/−
[1]; 50% preservative, 14 day
  MBC test growth score: 18
[1]; 60% preservative, 8 hour
  MBC test growth score: +
[1]; 60% preservative, 24 hour
  MBC test growth score: +
[1]; 60% preservative, 48 hour
  MBC test growth score: +/−
[1]; 60% preservative, 72 hour
  MBC test growth score: +/−
[1]; 60% preservative, 7 day
  MBC test growth score: +/−
[1]; 70% preservative, 8 hour
  MBC test growth score: +
[1]; 70% preservative, 24 hour
  MBC test growth score: +
[1]; 70% preservative, 48 hour
  MBC test growth score: +/−
[1]; 70% preservative, 72 hour
  MBC test growth score: 18
[1]; 70% preservative, 7 day
  MBC test growth score: 9
[1]; 70% preservative, 14 day
  MBC test growth score: 10
[1]; 80% preservative, 8 hour
  MBC test growth score: +
[1]; 80% preservative, 24 hour
  MBC test growth score: +
[1]; 80% preservative, 48 hour
  MBC test growth score: +/−
[1]; 80% preservative, 7 day
  MBC test growth score: 8
[1]; 80% preservative, 14 day
  MBC test growth score: 6
[1]; 90% preservative, 8 hour
  MBC test growth score: +
[1]; 90% preservative, 24 hour
  MBC test growth score: +
[1]; 90% preservative, 48 hour
  MBC test growth score: +/−
[1]; 90% preservative, 72 hour
  MBC test growth score: 10
[1]; 90% preservative, 7 day
  MBC test growth score: 7
[1]; 90% preservative, 14 day
  MBC test growth score: 3
[1]; 100% preservative, 8 hour
  MBC test growth score: +
[1]; 100% preservative, 24 hour
  MBC test growth score: +
[1]; 100% preservative, 48 hour
  MBC test growth score: +/−
[1]; 100% preservative, 72 hour
  MBC test growth score: 7
[1]; 100% preservative, 7 day
  MBC test growth score: 4
[1]; 100% preservative, 14 day
  MBC test growth score: 2
Ralstonia pickettii (AU); 10% preservative, 8 hour
  MBC test growth score: +
Ralstonia pickettii (AU); 10% preservative, 24 hour
  MBC test growth score: +
Ralstonia pickettii (AU); 10% preservative, 48 hour
  MBC test growth score: +
Ralstonia pickettii (AU); 10% preservative, 72 hour
  MBC test growth score: +
Ralstonia pickettii (AU); 20% preservative, 8 hour
  MBC test growth score: +
Ralstonia pickettii (AU); 20% preservative, 24 hour
  MBC test growth score: +
Ralstonia pickettii (AU); 20% preservative, 48 hour
  MBC test growth score: +
Ralstonia pickettii (AU); 20% preservative, 72 hour
  MBC test growth score: +
Ralstonia pickettii (AU); 30% preservative, 8 hour
  MBC test growth score: +
Ralstonia pickettii (AU); 30% preservative, 24 hour
  MBC test growth score: +
Ralstonia pickettii (AU); 30% preservative, 48 hour
  MBC test growth score: +
Ralstonia pickettii (AU); 30% preservative, 72 hour
  MBC test growth score: +
Ralstonia pickettii (AU); 40% preservative, 8 hour
  MBC test growth score: +
Ralstonia pickettii (AU); 40% preservative, 24 hour
  MBC test growth score: +
Ralstonia pickettii (AU); 40% preservative, 48 hour
  MBC test growth score: +
Ralstonia pickettii (AU); 40% preservative, 72 hour
  MBC test growth score: +
Ralstonia pickettii (AU); 50% preservative, 8 hour
  MBC test growth score: +
Ralstonia pickettii (AU); 50% preservative, 24 hour
  MBC test growth score: +
Ralstonia pickettii (AU); 50% preservative, 48 hour
  MBC test growth score: +
Ralstonia pickettii (AU); 50% preservative, 72 hour
  MBC test growth score: +
Ralstonia pickettii (AU); 60% preservative, 8 hour
  MBC test growth score: +
Ralstonia pickettii (AU); 60% preservative, 24 hour
  MBC test growth score: +
Ralstonia pickettii (AU); 60% preservative, 48 hour
  MBC test growth score: +
Ralstonia pickettii (AU); 60% preservative, 72 hour
  MBC test growth score: +
Ralstonia pickettii (AU); 70% preservative, 8 hour
  MBC test growth score: +
Ralstonia pickettii (AU); 70% preservative, 24 hour
  MBC test growth score: +
Ralstonia pickettii (AU); 70% preservative, 48 hour
  MBC test growth score: +
Ralstonia pickettii (AU); 70% preservative, 72 hour
  MBC test growth score: +
Ralstonia pickettii (AU); 80% preservative, 8 hour
  MBC test growth score: +
Ralstonia pickettii (AU); 80% preservative, 24 hour
  MBC test growth score: +
Ralstonia pickettii (AU); 80% preservative, 48 hour
  MBC test growth score: +
Ralstonia pickettii (AU); 80% preservative, 72 hour
  MBC test growth score: +
Ralstonia pickettii (AU); 90% preservative, 8 hour
  MBC test growth score: +
Ralstonia pickettii (AU); 90% preservative, 24 hour
  MBC test growth score: +
Ralstonia pickettii (AU); 90% preservative, 48 hour
  MBC test growth score: +
Ralstonia pickettii (AU); 90% preservative, 72 hour
  MBC test growth score: +
Ralstonia pickettii (AU); 100% preservative, 8 hour
  MBC test growth score: +
Ralstonia pickettii (AU); 100% preservative, 24 hour
  MBC test growth score: +
Ralstonia pickettii (AU); 100% preservative, 48 hour
  MBC test growth score: +
Ralstonia pickettii (AU); 100% preservative, 72 hour
  MBC test growth score: +
